Results from patent US20200289514A1, “Novel Pyrazolo Pyrimidine Derivatives” (Novartis AG, priority 2015, published 2020).

Key:
[1] = molecular target: T1, C-domain of MALT1 (amino acids 329-824) (Homo sapiens, UniProt Q9UDY8); assay: MALT1 Biochemical Assay - Version 2 (fluorescence intensity); set-up: C-domain of MALT1 (amino acids 329-824); details: fluorescence intensity readout, Rh110 substrate
T1 sequence (Q9UDY8 329-824): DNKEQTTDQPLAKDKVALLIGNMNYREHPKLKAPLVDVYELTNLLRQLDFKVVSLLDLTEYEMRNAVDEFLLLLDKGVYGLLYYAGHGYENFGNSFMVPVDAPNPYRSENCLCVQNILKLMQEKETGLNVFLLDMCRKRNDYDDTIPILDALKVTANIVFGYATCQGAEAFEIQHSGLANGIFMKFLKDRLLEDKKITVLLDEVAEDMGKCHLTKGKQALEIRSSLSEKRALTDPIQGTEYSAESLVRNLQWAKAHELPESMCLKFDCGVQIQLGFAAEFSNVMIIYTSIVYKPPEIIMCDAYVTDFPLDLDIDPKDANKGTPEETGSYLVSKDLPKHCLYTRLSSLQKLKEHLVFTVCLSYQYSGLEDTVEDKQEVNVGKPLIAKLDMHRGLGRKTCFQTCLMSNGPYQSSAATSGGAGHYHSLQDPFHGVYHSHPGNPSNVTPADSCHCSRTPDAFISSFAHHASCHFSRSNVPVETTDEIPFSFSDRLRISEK
Method: Alternatively the biochemical activity of some examples, namely example 43 and the Reference compound, were determined by measuring fluorescence intensity as described below:
MALT1 Biochemical Assay—Version 2:
The readout parameter is the increase of fluorescence intensity, proportional to enzyme activity.
The assay employs a short peptide substrate labeled with the fluorophore Rhodamine 110 (Rh110) as a fluorescence probe sensitive to the cleavage state of the substrate. The peptide substrate has the following sequence: Ac-Leu-Arg-Ser-Arg^Rh110-dPro (Product number BS-3027, Biosyntan, Germany; within the substrate sequence, A indicates the scissile bond). […] The assay was established for the 384-well plate format using black microtiter well plates. Test compounds were dissolved in 100% (v/v) DMSO or a mixture containing 90% (v/v) DMSO and 10% (v/v) H2O at a stock concentration of 100 mM. Serial dilutions of test compounds were prepared using either 100% (v/v) DMSO or a mixture containing 90% (v/v) DMSO and 10% (v/v) H2O.
y=A2+(A1−A2)/(1+(x/IC50)^ p) where y is the %-inhibition at the inhibitor concentration, x. A1 is the lowest inhibition value, and A2 the maximum inhibition value. The exponent, p, is the Hill coefficient.

[2] = molecular target: T1, C-domain of MALT1 (amino acids 329-824); assay: MALT1 Biochemical Assay - Version 1 (fluorescence lifetime)
Method: The readout parameter is the increase of fluorescence lifetime over time, proportional to enzyme activity.
The assay employs a short peptide substrate labeled with the single fluorophore PT14 as a fluorescence lifetime probe sensitive to the cleavage state of the substrate (PT14: 6-(9-oxo-9H-acridin-10-yl)-hexanoate, AssayMetrics, UK). […] Test compounds were dissolved in 100% (v/v) DMSO or a mixture containing 90% (v/v) DMSO and 10% (v/v) H2O at a stock concentration of 100 mM. Serial dilutions of test compounds were prepared using either 100% (v/v) DMSO or a mixture containing 90% (v/v) DMSO and 10% (v/v) H2O.

[3] = system: Human IL2 promoter; assay: Human IL2 promoter reporter gene assay (RGA) in Jurkat cells; assay type: cell-based; details: Jurkat clone K22 290_H23, anti-CD28 mAb + PMA, 5.5 h
Method: Human IL2 Promoter Reporter Gene Assay (RGA) in Jurkat Cells
The transfected Jurkat clone K22 290_H23 was propagated in RPMI 1640 supplemented with 10% heat inactivated fetal calf serum, 50 μM 2-mercaptoethanol and 1 mg/ml Geneticin. The cell concentration should not exceed 1×10e6/ml during culturing. The cells should not exceed passage 30. Prior to the assay the cells were washed and prepared to the concentration of 2×10e6 cells/ml.
Compound dilutions were made as 2×-concentrated solutions then diluted ½ by addition to cells. Two hundred and fifty μl of compound dilution and 250 μl of cells were mixed together in wells of a 96-deep well plate. Cells/compounds premix were incubated 30 min at 37° C. and 5% CO2 directly in the deep well plate.
After pre-incubation of cells with compounds, cells were stimulated with anti-CD28 mAb (clone 15E8) at 3 μg/ml+PMA at 1 μg/ml. Both co-stimulants were diluted in culture medium at a 10×-concentrated solution. 10 μl of co-stimulants were pipetted into the white 96-well plates and 100 μl of cell/compound mix was immediately added in duplicates. The cells were stimulated for 5.5 h at 37° C. and 5% CO2.
After cell stimulation, 50 μl of BriteLitePlus reagent (Perkin Elmer) was added to each well and the bioluminescence was measured with a Wallac EnVision reader (Perkin Elmer).

Row | Structure (SMILES) | IC50 [1] [nM] | IC50 [2] [nM] | IC50 [3] [nM]
1 | CC(C)[C@H](NC(=O)OCc1ccccc1)C(=O)N[C@@H](C)C(=O)N[C@@H](CC(=O)OC(C)(C)C)C(=O)COC(=O)c1c(Cl)cccc1Cl [Reference**, reference compound] | 6 | 12 | 
2 | CO[C@@H](C)c1c(NC(=O)Nc2cnc(C(N)=O)c(Cl)c2)cnc2cc(F)nn12 [Example 43, (S)-3-chloro-5-(3-(2-fluoro-7-(1-methoxyethyl)pyrazolo[1,5-a]pyrimidin-6-yl)ureido)picolinamide] | 8 |  | 69
